Values after ≈ are worked out from the molar mass of the structure shown. Some results are limits rather than exact numbers.

One assay deals with S. aureus. The assay can be described thus: Bacterial susceptibility testing, MIC by broth microdilution (CLSI). In kind it is cell-based. To be noted: Staphylococcus aureus, cation adjusted Mueller-Hinton Broth, 35° C., 18-24 h. Here is the method:
(§1) Minimal inhibitory concentrations (MIC) were determined by the broth microdilution method in accordance with the Clinical and Laboratory Standards Institute (CLSI) guidelines. In brief, organism suspensions were adjusted to a 0.5 McFarland standard to yield a final inoculum between 3×10^5 and 7×10^5 colony-forming units (CFU)/mL. Drug dilutions and inocula were made in sterile, cation adjusted Mueller-Hinton Broth (Beckton Dickinson). An inoculum volume of 100 μL was added to wells containing 100 μL of broth with 2-fold serial dilutions of drug. All inoculated microdilution trays were incubated in ambient air at 35° C. for 18-24 h. Following incubation, the lowest concentration of the drug that prevented visible growth (OD600 nm<0.05) was recorded as the MIC. Performance of the assay was monitored by the use of laboratory quality-control strains and levofloxacin, a compound with a defined MIC spectrum, in accordance with CLSI guidelines.

In another assay the test system is E. coli. Described as above. In kind it is cell-based. To be noted: Escherichia coli, cation adjusted Mueller-Hinton Broth, 35° C., 18-24 h. Here is the method:
as §1

Consider `NCC(Cc1ccc(-c2ccccc2)cc1)c1occc(=O)c1O` (stereo not drawn) [Compound 6, 2-(1-([1,1′-biphenyl]-4-yl)-3-aminopropan-2-yl)-3-hydroxy-4H-pyran-4-one], for which the minimum inhibitory concentration (MIC) against S. aureus and in the assay on E. coli was 8 µg/mL (≈ 24.9 µM) throughout.

In the assay with E. coli, `CS(=O)(=O)C(Cc1ccc(C#Cc2ccc(CN3CCOCC3)cc2)cc1)c1occc(=O)c1O` (stereo not drawn) [Compound 1, 3-hydroxy-2-(1-(methylsulfonyl)-2-(4-((4-(morpholinomethyl)phenyl)ethynyl)phenyl)ethyl)-4H-pyran-4-one] yielded an MIC greater than 32 µg/mL. Consider `O=c1ccoc(C(CO)Cc2ccc(-c3ccccc3)cc2)c1O` (stereo not drawn) [Compound 5, 2-(1-([1,1′-biphenyl]-4-yl)-3-hydroxypropan-2-yl)-3-hydroxy-4H-pyran-4-one], for which the minimum inhibitory concentration (MIC) with S. aureus and in the assay on E. coli was greater than 32 µg/mL each time. On to `O=c1ccoc(CN(CCO)c2ccc(-c3ccccc3)cc2)c1O` [Compound 7, 2-(([1,1′-biphenyl]-4-yl(2-hydroxyethyl)amino)methyl)-3-hydroxy-4H-pyran-4-one], for which the MIC in the assay on S. aureus and in the assay with E. coli was greater than 32 µg/mL in each case.

Regarding `CS(=O)(=O)NCC(Cc1ccc(-c2ccccc2)cc1)c1occc(=O)c1O` (stereo not drawn) [Compound 3, N-(3-([1,1′-biphenyl]-4-yl)-2-(3-hydroxy-4-oxo-4H-pyran-2-yl)propyl)methanesulfonamide], the minimal inhibitory concentration (MIC) with S. aureus and with E. coli was greater than 32 µg/mL each time. For `CS(=O)(=O)CC(Cc1ccc(-c2ccccc2)cc1)c1occc(=O)c1O` (stereo not drawn) [Compound 4, 2-(1-([1,1′-biphenyl]-4-yl)-3-(methylsulfonyl)propan-2-yl)-3-hydroxy-4H-pyran-4-one], the MIC in the assay on S. aureus and in the assay with E. coli was greater than 32 µg/mL throughout.

In the assay on E. coli, `O=C(Nc1ccc(C#CC#Cc2ccccc2)cc1)c1occc(=O)c1O` [Compound 2, 3-hydroxy-4-oxo-N-(4-(phenylbuta-1,3-diyn-1-yl)phenyl)-4H-pyran-2-carboxamide] came in with an MIC greater than 32 µg/mL.

Source of the values: US11021471B2, “Antibacterial compounds” (FORGE THERAPEUTICS, INC., priority 2017, dated 2021).
